Measured values: US10556907B2 (AbbVie Inc., priority 2015, dated 2020)
Counter-ions that a name gives are not always drawn.

Assays:
Assay in all cases: Method 1: intracellular Ca2+ release (FLIPR, Calcium 5) in recombinant CHO-K1 cells
Type in all cases: cell-based
human S1PR5 receptor = target: T1, human S1PR5 receptor (Homo sapiens, UniProt Q9H228); conditions: agonist potency, determined with method 1 (symbols A-D); read-out: S1P5 EC50 range
T1 construct: host or cells: CHO-K1
Procedure, shortened: (§1)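 Agonist EC50; CHO-K1 + Gq/i5 + aequorin; Calcium 5 dye 1 h 37 °C, 45 min RT; serial-dilution compound add; FLIPR read; normalized to phospho-fingolimod.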

human S1PR1 receptor = target: T2, human S1PR1 receptor (Homo sapiens, UniProt P21453); conditions: (1): determined with method 1; read-out: S1P1 EC50
T2 construct: host or cells: CHO-K1
T2 sequence (P21453 whole entry): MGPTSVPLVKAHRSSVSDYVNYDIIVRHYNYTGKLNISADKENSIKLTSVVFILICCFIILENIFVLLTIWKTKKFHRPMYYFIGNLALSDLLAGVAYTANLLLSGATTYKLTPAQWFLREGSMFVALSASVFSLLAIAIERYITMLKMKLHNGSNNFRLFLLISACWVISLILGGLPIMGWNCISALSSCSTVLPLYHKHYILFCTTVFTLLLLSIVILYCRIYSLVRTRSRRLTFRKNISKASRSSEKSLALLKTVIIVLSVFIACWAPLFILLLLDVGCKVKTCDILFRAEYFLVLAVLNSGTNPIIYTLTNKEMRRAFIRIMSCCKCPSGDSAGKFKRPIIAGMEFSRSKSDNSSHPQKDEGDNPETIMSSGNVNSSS
Procedure, shortened: as §1

human S1PR4 receptor = target: T3, human S1PR4 receptor (Homo sapiens, UniProt O95977); conditions: (1): determined with method 1; read-out: S1P4 EC50
T3 construct: host or cells: CHO-K1
T3 sequence (O95977 1-384): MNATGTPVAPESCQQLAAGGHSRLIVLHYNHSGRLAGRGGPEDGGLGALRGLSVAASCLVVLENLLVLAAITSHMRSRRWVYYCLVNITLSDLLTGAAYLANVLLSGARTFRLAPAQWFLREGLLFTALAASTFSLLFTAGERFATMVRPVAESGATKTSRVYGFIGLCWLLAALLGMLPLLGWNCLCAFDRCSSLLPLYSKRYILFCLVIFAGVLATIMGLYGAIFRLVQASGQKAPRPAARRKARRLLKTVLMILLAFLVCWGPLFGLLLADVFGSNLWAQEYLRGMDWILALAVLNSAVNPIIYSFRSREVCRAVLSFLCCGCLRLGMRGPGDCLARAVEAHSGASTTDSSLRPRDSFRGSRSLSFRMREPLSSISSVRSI
Procedure, shortened: as §1

human S1PR3 receptor = target: T4, human S1PR3 receptor (Homo sapiens, UniProt Q99500); conditions: (1): determined with method 1; read-out: S1P3 EC50
T4 construct: host or cells: CHO-K1
T4 sequence (Q99500 whole entry): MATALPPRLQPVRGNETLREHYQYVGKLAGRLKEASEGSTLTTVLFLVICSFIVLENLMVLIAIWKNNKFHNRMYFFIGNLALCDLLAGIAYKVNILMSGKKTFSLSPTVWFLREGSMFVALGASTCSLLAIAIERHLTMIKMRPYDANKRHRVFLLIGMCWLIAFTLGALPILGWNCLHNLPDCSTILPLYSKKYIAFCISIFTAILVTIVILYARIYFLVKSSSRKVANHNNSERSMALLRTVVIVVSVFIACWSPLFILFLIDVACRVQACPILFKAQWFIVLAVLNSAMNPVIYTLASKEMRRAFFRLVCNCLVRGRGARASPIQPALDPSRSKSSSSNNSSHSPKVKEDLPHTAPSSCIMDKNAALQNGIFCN
Procedure, shortened: as §1

T1 sequence (Q9H228 whole entry): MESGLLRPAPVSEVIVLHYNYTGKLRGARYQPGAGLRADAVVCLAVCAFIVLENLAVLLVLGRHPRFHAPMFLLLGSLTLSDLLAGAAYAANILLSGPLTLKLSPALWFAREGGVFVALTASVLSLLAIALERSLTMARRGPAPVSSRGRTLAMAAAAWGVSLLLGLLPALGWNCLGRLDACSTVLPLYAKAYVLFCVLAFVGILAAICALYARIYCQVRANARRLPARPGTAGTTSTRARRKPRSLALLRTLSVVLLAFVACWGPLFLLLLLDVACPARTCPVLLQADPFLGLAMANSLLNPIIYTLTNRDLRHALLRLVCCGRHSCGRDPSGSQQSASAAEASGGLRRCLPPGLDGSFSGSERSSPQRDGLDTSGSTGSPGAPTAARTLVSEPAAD

SMILES: O=C(O)CCN1CCc2nc(-c3ccc(OCc4ccccc4)cc3)cnc2C1 [Compound 177, 3-(2-(4-(benzyloxy)phenyl)-7,8-dihydropyrido[3,4-b]pyrazin-6(5H)-yl)propanoic acid]
- EC50 (human S1PR5 receptor): < 10 nM
- EC50 (human S1PR1 receptor): > 1000 nM
- EC50 (human S1PR4 receptor): > 1000 nM
- EC50 (human S1PR3 receptor): > 1000 nM

SMILES: O=C(O)CCN1CCc2nc(-c3ccc(OCc4ccc(Cl)cc4)cc3)cnc2C1 [Compound 178, 3-(2-(4-((4-chlorobenzyl)oxy)phenyl)-7,8-dihydropyrido[3,4-b]pyrazin-6(5H)-yl)propanoic acid]
- EC50 (human S1PR5 receptor): < 10 nM
- EC50 (human S1PR1 receptor): > 1000 nM
- EC50 (human S1PR4 receptor): > 1000 nM
- EC50 (human S1PR3 receptor): > 1000 nM

SMILES: O=C(O)CCN1CCc2nc(-c3ccc(OCc4cccc(Cl)c4)cc3)cnc2C1 [Compound 179, 3-(2-(4-((3-chlorobenzyl)oxy)phenyl)-7,8-dihydropyrido[3,4-b]pyrazin-6(5H)-yl)propanoic acid]
- EC50 (human S1PR5 receptor): < 10 nM
- EC50 (human S1PR1 receptor): > 1000 nM
- EC50 (human S1PR4 receptor): > 1000 nM
- EC50 (human S1PR3 receptor): < 1000 nM

SMILES: CC(CCN1CCc2nc(-c3ccc(OCc4ccccc4)cc3)c(F)cc2C1)C(=O)O (stereo not drawn) [Compound 180, 4-(2-(4-(benzyloxy)phenyl)-3-fluoro-7,8-dihydro-1,6-naphthyridin-6(5H)-yl)-2-methylbutanoic acid]
- EC50 (human S1PR5 receptor): < 10 nM
- EC50 (human S1PR1 receptor): < 1000 nM
- EC50 (human S1PR4 receptor): > 1000 nM
- EC50 (human S1PR3 receptor): > 1000 nM

SMILES: CC(CCN1CCc2nc(-c3ccc(OCc4ccc(Cl)cc4)cc3)c(F)cc2C1)C(=O)O (stereo not drawn) [Compound 181]
- EC50 (human S1PR5 receptor): < 10 nM
- EC50 (human S1PR1 receptor): < 1000 nM
- EC50 (human S1PR4 receptor): > 1000 nM
- EC50 (human S1PR3 receptor): > 1000 nM

SMILES: CC(CCN1CCc2nc(-c3ccc(OCc4cccc(Cl)c4)cc3)c(F)cc2C1)C(=O)O (stereo not drawn) [Compound 182, 4-(2-(4-((3-chlorobenzyl)oxy)phenyl)-3-fluoro-7,8-dihydro-1,6-naphthyridin-6(5H)-yl)-2-methylbutanoic acid]
- EC50 (human S1PR5 receptor): < 10 nM
- EC50 (human S1PR1 receptor): > 1000 nM
- EC50 (human S1PR4 receptor): > 1000 nM
- EC50 (human S1PR3 receptor): > 1000 nM

SMILES: O=C(O)CCN1CCc2nc(-c3ccc(OCc4ccccc4)cc3)c(F)cc2C1 [Compound 186, 3-(2-(4-(benzyloxy)phenyl)-3-fluoro-7,8-dihydro-1,6-naphthyridin-6(5H)-yl)propanoic acid]
- EC50 (human S1PR5 receptor): < 10 nM
- EC50 (human S1PR1 receptor): > 1000 nM
- EC50 (human S1PR4 receptor): > 1000 nM
- EC50 (human S1PR3 receptor): > 1000 nM

SMILES: O=C(O)CCN1CCc2nc(-c3ccc(OCc4cccc(Cl)c4)cc3)c(F)cc2C1 [Compound 189, 3-(2-(4-((3-chlorobenzyl)oxy)phenyl)-3-fluoro-7,8-dihydro-1,6-naphthyridin-6(5H)-yl)propanoic acid]
- EC50 (human S1PR5 receptor): < 10 nM
- EC50 (human S1PR1 receptor): > 1000 nM
- EC50 (human S1PR4 receptor): > 1000 nM
- EC50 (human S1PR3 receptor): > 1000 nM

SMILES: O=C(O)CCN1CCc2nc(-c3ccc(OCc4c(Cl)cccc4Cl)cc3)c(F)cc2C1 [Compound 192, 3-(2-(4-((2,6-dichlorobenzyl)oxy)phenyl)-3-fluoro-7,8-dihydro-1,6-naphthyridin-6(5H)-yl)propanoic acid]
- EC50 (human S1PR5 receptor): < 10 nM
- EC50 (human S1PR1 receptor): > 1000 nM
- EC50 (human S1PR4 receptor): > 1000 nM
- EC50 (human S1PR3 receptor): > 1000 nM

SMILES: O=C(O)CCN1CCc2nc(-c3ccc(OCc4cccc(F)c4)cc3)c(F)cc2C1 [Compound 193, 3-(2-(4-((3-fluorobenzyl)oxy)phenyl)-3-fluoro-7,8-dihydro-1,6-naphthyridin-6(5H)-yl)propanoic acid]
- EC50 (human S1PR5 receptor): < 10 nM
- EC50 (human S1PR1 receptor): > 1000 nM
- EC50 (human S1PR4 receptor): > 1000 nM
- EC50 (human S1PR3 receptor): > 1000 nM

SMILES: CC(C)(CC(=O)O)CN1CCc2nc(-c3ccc(OCc4ccc(Cl)cc4)cc3)ncc2C1 [Compound 210, 4-(2-(4-((4-chlorobenzyl)oxy)phenyl)-7,8-dihydropyrido[4,3-d]pyrimidin-6(5H)-yl)-3,3-dimethylbutanoic acid]
- EC50 (human S1PR5 receptor): 1000 to 10000 nM
- EC50 (human S1PR1 receptor): > 1000 nM
- EC50 (human S1PR4 receptor): > 1000 nM
- EC50 (human S1PR3 receptor): > 1000 nM

SMILES: CC(CCC(=O)O)N1CCc2nc(-c3ccc(Cc4ccccc4)cc3)ncc2C1 (stereo not drawn) [Compound 214, 4-(2-(4-benzylphenyl)-7,8-dihydropyrido[4,3-d]pyrimidin-6(5H)-yl)pentanoic acid]
- EC50 (human S1PR5 receptor): 1000 to 10000 nM
- EC50 (human S1PR1 receptor): > 1000 nM
- EC50 (human S1PR4 receptor): > 1000 nM
- EC50 (human S1PR3 receptor): > 1000 nM

SMILES: O=C(O)C1(CN2CCc3nc(-c4ccc(OCc5ccc(Cl)cc5)cc4)ncc3C2)CC1 [Compound 215, 1-((2-(4-((4-chlorobenzyl)oxy)phenyl)-7,8-dihydropyrido[4,3-d]pyrimidin-6(5H)-yl)methyl)cyclopropanecarboxylic acid]
- EC50 (human S1PR5 receptor): 1000 to 10000 nM
- EC50 (human S1PR1 receptor): > 1000 nM
- EC50 (human S1PR4 receptor): > 1000 nM
- EC50 (human S1PR3 receptor): > 1000 nM

SMILES: O=C(O)C1(CN2CCc3nc(-c4ccc(Cc5ccccc5)cc4)ncc3C2)CC1 [Compound 218, 1-((2-(4-benzylphenyl)-7,8-dihydropyrido[4,3-d]pyrimidin-6(5H)-yl)methyl)cyclopropanecarboxylic acid]
- EC50 (human S1PR5 receptor): 1000 to 10000 nM
- EC50 (human S1PR1 receptor): > 1000 nM
- EC50 (human S1PR4 receptor): > 1000 nM
- EC50 (human S1PR3 receptor): > 1000 nM

SMILES: O=C(O)CCN1CCc2cc(OCc3c(Cl)cccc3Cl)ncc2C1 [Compound 219, 3-(6-((2,6-dichlorobenzyl)oxy)-3,4-dihydro-2,7-naphthyridin-2(1H)-yl)propanoic acid hydrochloride]
- EC50 (human S1PR5 receptor): 100 to 1000 nM
- EC50 (human S1PR1 receptor): > 1000 nM
- EC50 (human S1PR4 receptor): > 1000 nM
- EC50 (human S1PR3 receptor): > 1000 nM

SMILES: CC(CC(=O)O)CN1CCc2nc(-c3ccc(OCc4ccc(F)cc4)cc3)ncc2C1 (stereo not drawn) [Compound 225, 4-(2-(4-((4-fluorobenzyl)oxy)phenyl)-7,8-dihydropyrido[4,3-d]pyrimidin-6(5H)-yl)-3-methylbutanoic acid]
- EC50 (human S1PR5 receptor): < 10 nM
- EC50 (human S1PR1 receptor): > 1000 nM
- EC50 (human S1PR4 receptor): > 1000 nM
- EC50 (human S1PR3 receptor): > 1000 nM

SMILES: CC(CC(=O)O)CN1CCc2nc(-c3ccc(OCc4cccc(F)c4F)cc3)ncc2C1 (stereo not drawn) [Compound 226, 4-[2-[4-[(2,3-difluorophenyl)methoxy]phenyl]-7,8-dihydro-5H-pyrido[4,3-d]pyrimidin-6-yl]-3-methyl-butanoic acid 2,2,2-trifluoroacetic acid salt]
- EC50 (human S1PR5 receptor): < 10 nM
- EC50 (human S1PR1 receptor): < 1000 nM
- EC50 (human S1PR4 receptor): > 1000 nM
- EC50 (human S1PR3 receptor): > 1000 nM

SMILES: CC(CC(=O)O)CN1CCc2nc(-c3ccc(OCc4cccc(F)c4)cc3)ncc2C1 (stereo not drawn) [Compound 227, 4-(2-(4-((3-fluorobenzyl)oxy)phenyl)-7,8-dihydropyrido[4,3-d]pyrimidin-6(5H)-yl)-3-methylbutanoic acid]
- EC50 (human S1PR5 receptor): < 10 nM
- EC50 (human S1PR1 receptor): > 1000 nM
- EC50 (human S1PR4 receptor): < 1000 nM
- EC50 (human S1PR3 receptor): > 1000 nM

SMILES: CC(CC(=O)O)CN1CCc2nc(-c3ccc(OCc4ccc(F)c(F)c4)cc3)ncc2C1 (stereo not drawn) [Compound 228, 4-(2-(4-((3,4-difluorobenzyl)oxy)phenyl)-7,8-dihydropyrido[4,3-d]pyrimidin-6(5H)-yl)-3-methylbutanoic acid]
- EC50 (human S1PR5 receptor): < 10 nM
- EC50 (human S1PR1 receptor): > 1000 nM
- EC50 (human S1PR4 receptor): > 1000 nM
- EC50 (human S1PR3 receptor): > 1000 nM

SMILES: CC(CC(=O)O)CN1CCc2nc(-c3ccc(OCc4ccccc4Cl)cc3)ncc2C1 (stereo not drawn) [Compound 229, 4-[2-[4-[(2-chlorophenyl)methoxy]phenyl]-7,8-dihydro-5H-pyrido[4,3-d]pyrimidin-6-yl]-3-methyl-butanoic acid 2,2,2-trifluoroacetic acid salt]
- EC50 (human S1PR5 receptor): < 10 nM
- EC50 (human S1PR1 receptor): < 1000 nM
- EC50 (human S1PR4 receptor): > 1000 nM
- EC50 (human S1PR3 receptor): > 1000 nM

SMILES: Cc1cccc(COc2ccc(-c3ncc4c(n3)CCN(CC(C)CC(=O)O)C4)cc2)c1 (stereo not drawn) [Compound 230, 3-methyl-4-(2-(4-((3-methylbenzyl)oxy)phenyl)-7,8-dihydropyrido[4,3-d]pyrimidin-6(5H)-yl)butanoic acid]
- EC50 (human S1PR5 receptor): < 10 nM
- EC50 (human S1PR1 receptor): < 1000 nM
- EC50 (human S1PR4 receptor): > 1000 nM
- EC50 (human S1PR3 receptor): > 1000 nM
